Among the data in patent US9809582B2, “Aminoester derivatives” (CHIESI FARMACEUTICI S.p.A., priority 2015, dated 2017) are IC50 values, retold here.

Structures are written as SMILES. pIC50: −log10 of the molar value. Read-outs that look alike come from different tables or passages of the source. A value given as a limit tells only on which side of the number the result lay.

Broadly, the pIC50 is −log10 of the IC50, conventionally taken in molar units.

In one test the target is Human M3 receptor (Homo sapiens (Human), UniProt P20309). The test can be described thus: M3 receptor radioligand binding assay. As for the experimental part:
M3 Receptor Radioligand Binding Assay:
The assay is carried out in 96-well polypropylene plates in a volume of 250 μl. […] The final assay concentration of DMSO is 0.5% (v/v). The plates are sealed and incubated for 2 h at room temperature on an orbital shaker (slow speed). Membranes are harvested onto 96-well unifilter GF/C filter plates pre-treated with 0.5% polyethyleneimine (v/v), using a filter manifold, washed four times with […] of assay buffer. The plates are dried before addition of 50 μl of microscint-0, sealed then read in a Trilux Microbeta scintillation counter. IC50 values are determined from competition curves using a non-linear curve fitting program. Ki values are calculated from IC50 values by the Cheng and Prusoff equation.

Another test has as its target Human recombinant PDE4B2 (Homo sapiens (Human), UniProt Q07343). Description: PDE4B2 HTRF assay. The format is biochemical. As for the experimental part:
PDE4B2 activity is detected using the LANCE Ultra cAMP homogeneous time resolved fluorescence resonance energy transfer (TR-FRET) assay from Perkin Elmer. The assay is based on the competition between the europium (Eu) chelate-labeled cAMP tracer and sample cAMP for binding sites on cAMP-specific monoclonal antibodies (mAb) labelled with the ULight™ dye. The assay is carried out in 384-well low volume plates in a volume of 10 μl. Human recombinant PDE4B2 (80 pM) is incubated for 2 h with 3 nM cAMP in buffer containing 1×HBSS, 5 mM HEPES, 3 mM MgCl2, 0.1% BSA, pH 7.4 with or without test compounds. The enzymatic reactions are efficiently stopped by the addition of 500 μM IBMX present in the combined Stop/Detection buffer containing europium (Eu) chelate-labeled cAMP tracer and cAMP-specific monoclonal antibodies (mAb) labelled with the ULight™ dye. […] IC50 values are determined from competition curves using a non-linear curve fitting program.

Where [1] appears, read: M3 Receptor radioligand binding assay, read-out: M3 IC50 Activity.
The mark [2] stands for this setting: PDE4B2 HTRF assay, read-out: PDE4B2 IC50 Activity.

Sequence of Human recombinant PDE4B2 (Q07343 other isoform, or with tags, fused parts or gaps): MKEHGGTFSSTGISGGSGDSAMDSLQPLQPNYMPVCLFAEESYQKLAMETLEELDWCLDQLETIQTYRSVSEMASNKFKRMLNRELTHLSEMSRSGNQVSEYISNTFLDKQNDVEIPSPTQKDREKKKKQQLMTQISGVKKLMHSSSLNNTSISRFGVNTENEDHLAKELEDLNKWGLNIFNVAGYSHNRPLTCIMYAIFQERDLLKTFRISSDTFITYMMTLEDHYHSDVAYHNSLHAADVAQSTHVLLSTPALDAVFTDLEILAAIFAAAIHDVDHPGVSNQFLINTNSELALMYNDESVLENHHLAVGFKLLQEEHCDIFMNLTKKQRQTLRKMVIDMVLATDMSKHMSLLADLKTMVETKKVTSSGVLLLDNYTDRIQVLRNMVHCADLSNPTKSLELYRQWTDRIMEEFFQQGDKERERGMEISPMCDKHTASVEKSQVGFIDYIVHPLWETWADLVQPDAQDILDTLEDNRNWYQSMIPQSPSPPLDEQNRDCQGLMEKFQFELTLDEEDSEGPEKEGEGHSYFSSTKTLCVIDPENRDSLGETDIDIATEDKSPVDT
Sequence of Human M3 receptor (P20309 whole entry): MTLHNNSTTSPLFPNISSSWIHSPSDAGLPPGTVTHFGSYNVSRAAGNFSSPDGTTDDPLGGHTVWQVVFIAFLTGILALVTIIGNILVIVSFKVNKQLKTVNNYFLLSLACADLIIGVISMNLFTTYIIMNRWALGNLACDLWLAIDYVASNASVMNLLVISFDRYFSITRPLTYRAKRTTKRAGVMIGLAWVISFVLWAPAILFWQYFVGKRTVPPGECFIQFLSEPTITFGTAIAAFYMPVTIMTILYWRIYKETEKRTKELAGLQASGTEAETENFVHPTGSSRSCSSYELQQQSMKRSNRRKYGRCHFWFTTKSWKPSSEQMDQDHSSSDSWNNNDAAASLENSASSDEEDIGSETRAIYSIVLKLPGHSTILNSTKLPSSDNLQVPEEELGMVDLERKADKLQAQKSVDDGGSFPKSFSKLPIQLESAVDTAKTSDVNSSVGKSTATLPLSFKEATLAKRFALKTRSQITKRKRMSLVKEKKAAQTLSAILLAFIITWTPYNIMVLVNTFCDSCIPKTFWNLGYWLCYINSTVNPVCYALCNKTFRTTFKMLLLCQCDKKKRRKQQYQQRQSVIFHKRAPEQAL

`COc1ccc([C@H](Cc2c(Cl)c[n+]([O-])cc2Cl)OC(=O)c2ccc(CNCC(C(=O)O[C@H]3CN4CCC3CC4)c3ccccc3)s2)cc1OC` (single isomer, unassigned) [Example 20]: the figures for the pIC50 on Human M3 receptor (M3 IC50 Activity) and on Human recombinant PDE4B2 were over 9.00 and 8.00 to 9.00, respectively.
With `COc1ccc([C@H](Cc2c(Cl)c[n+]([O-])cc2Cl)OC(=O)c2ccc(CNCC(C(=O)O[C@H]3CN4CCC3CC4)c3ccccc3)s2)cc1OC` (single isomer, unassigned) [Example 21], the negative-log IC50 (pIC50) at Human M3 receptor (M3 IC50 Activity) and at Human recombinant PDE4B2 (read-out: PDE4B2 IC50 Activity) was 8.00 to 9.00 each time.
Consider `COc1ccc([C@H](Cc2c(Cl)c[n+]([O-])cc2Cl)OC(=O)c2ccc(CNCC(C)(C(=O)OCCN(C)C)c3ccccc3)s2)cc1OC` (single isomer, unassigned) [Example 28], for which the pIC50 on Human M3 receptor (setting [1]) is 7.00 to 8.00.
`COc1ccc([C@H](Cc2c(Cl)c[n+]([O-])cc2Cl)OC(=O)c2ccc(CNC3CC(C(=O)OC4CCN(C)CC4)(c4ccccc4)C3)s2)cc1OC` (single isomer, unassigned) [Example 34]: the negative logarithm of the IC50 (pIC50) on Human M3 receptor (setting [1]) is 7.00 to 8.00; at Human recombinant PDE4B2 (setting [2]) it was 8.00 to 9.00.
Consider `COc1ccc([C@H](Cc2c(Cl)c[n+]([O-])cc2Cl)OC(=O)c2ccc(CNC3CC(C(=O)OC4CCN(C)CC4)(c4ccccc4)C3)s2)cc1OC` (single isomer, unassigned) [Example 35], for which the negative logarithm of the IC50 (pIC50) on Human M3 receptor (setting [1]) and on Human recombinant PDE4B2 (setting [2]) was 8.00 to 9.00 throughout.
On to `COc1ccc([C@H](Cc2c(Cl)c[n+]([O-])cc2Cl)OC(=O)c2ccc(CNCC(C(=O)O[C@H]3CN4CCC3CC4)c3ccccc3)s2)cc1OC` (stereo partly drawn) [Example 1, [(1S)-2-(3,5-dichloro-1-oxido-pyridin-1-ium-4-yl)-1-(3,4-dimethoxyphenyl)ethyl] 5-[[[3-oxo-2-phenyl-3-[(3R)-quinuclidin-3-yl]oxy-propyl]amino]methyl]thiophene-2-carboxylate], for which the negative logarithm of the IC50 (pIC50) at Human M3 receptor (M3 IC50 Activity) and on Human recombinant PDE4B2 was 8.00 to 9.00 in each case.
Turning to `COc1ccc([C@H](Cc2c(Cl)c[n+]([O-])cc2Cl)OC(=O)c2ccc(CNCC(C(=O)O[C@H]3CN4CCC3CC4)c3ccccc3)cc2)cc1OC` (stereo partly drawn) [Example 2, [(1S)-2-(3,5-dichloro-1-oxido-pyridin-1-ium-4-yl)-1-(3,4-dimethoxyphenyl)ethyl] 4-[[[3-oxo-2-phenyl-3-[(3R)-quinuclidin-3-yl]oxy-propyl]amino]methyl]benzoate], the negative logarithm of the IC50 (pIC50) on Human M3 receptor (M3 IC50 Activity) and at Human recombinant PDE4B2 was 8.00 to 9.00 in each case.
In the case of `COc1ccc([C@H](Cc2c(Cl)c[n+]([O-])cc2Cl)OC(=O)c2ccc(CNCC(C(=O)O[C@@H]3CCN(C)C3)c3ccccc3)s2)cc1OC` (stereo partly drawn) [Example 4, [(1S)-2-(3,5-dichloro-1-oxido-pyridin-1-ium-4-yl)-1-(3,4-dimethoxyphenyl)ethyl]-5-[[[3-[(3R)-1-methylpyrrolidin-3-yl]oxy-3-oxo-2-phenyl-propyl]amino]methyl]thiophene-2-carboxylate], the figures for the pIC50 on Human M3 receptor (setting [1]) and at Human recombinant PDE4B2 (setting [2]) were 7.00 to 8.00 and 8.00 to 9.00, respectively.
As to `COc1ccc([C@H](Cc2c(Cl)c[n+]([O-])cc2Cl)OC(=O)c2ccc(CNCC(C(=O)OC3CCN(C)CC3)c3ccccc3)s2)cc1OC` (stereo partly drawn) [Example 5, [(1S)-2-(3,5-dichloro-1-oxido-pyridin-1-ium-4-yl)-1-(3,4-dimethoxyphenyl)ethyl] 5-[[[3-[(1-methyl-4-piperidyl)oxy]-3-oxo-2-phenyl-propyl]amino]methyl]thiophene-2-carboxylate], the pIC50 at Human M3 receptor (setting [1]) was 8.00 to 9.00.
As to `COc1ccc([C@H](Cc2c(Cl)c[n+]([O-])cc2Cl)OC(=O)c2ccc(CNCC(C)(C(=O)O[C@H]3CN4CCC3CC4)c3ccccc3)s2)cc1OC` (stereo partly drawn) [Example 7, [(1S)-2-(3,5-dichloro-1-oxido-pyridin-1-ium-4-yl)-1-(3,4-dimethoxyphenyl)ethyl] 5-[[[2-methyl-3-oxo-2-phenyl-3-[(3R)-quinuclidin-3-yl]oxy-propyl]amino]methyl]thiophene-2-carboxylate], at Human recombinant PDE4B2 (read-out: PDE4B2 IC50 Activity), the pIC50 was 8.00 to 9.00.
For `COc1ccc([C@H](Cc2c(Cl)c[n+]([O-])cc2Cl)OC(=O)c2ccc(CNCC(C)(C(=O)OC3CCN(C)CC3)c3ccccc3)s2)cc1OC` (stereo partly drawn) [Example 8, [(1S)-2-(3,5-dichloro-1-oxido-pyridin-1-ium-4-yl)-1-(3,4-dimethoxyphenyl)ethyl] 5-[[[2-methyl-3-[(1-methyl-4-piperidyl)oxy]-3-oxo-2-phenyl-propyl]amino]methyl]thiophene-2-carboxylate], the pIC50 on Human M3 receptor (setting [1]) was 7.00 to 8.00.
Take `COc1ccc([C@H](Cc2c(Cl)c[n+]([O-])cc2Cl)OC(=O)c2ccc(CNCC(C)(C(=O)OCCN(C)C)c3ccccc3)s2)cc1OC` (stereo partly drawn) [Example 9, [(1S)-2-(3,5-dichloro-1-oxido-pyridin-1-ium-4-yl)-1-(3,4-dimethoxyphenyl)ethyl] 5-[[[3-(2-dimethylaminoethyloxy)-2-methyl-3-oxo-2-phenyl-propyl]amino]methyl]thiophene-2-carboxylate]: the pIC50 on Human M3 receptor (setting [1]) was 7.00 to 8.00.
For `COc1ccc([C@H](Cc2c(Cl)c[n+]([O-])cc2Cl)OC(=O)c2ccc(CN3CC(C(=O)O[C@H]4CN5CCC4CC5)(c4ccccc4)C3)s2)cc1OC` [Example 15, [(3R)-quinuclidin-3-yl]-1-[[5-[(1S)-2-(3,5-dichloro-1-oxido-pyridin-1-ium-4-yl)-1-(3,4-dimethoxyphenyl)ethoxy]carbonyl-2-thienyl]methyl]-3-phenyl-azetidine-3-carboxylate], the negative logarithm of the IC50 (pIC50) on Human recombinant PDE4B2 was 8.00 to 9.00.
For the compound `COc1ccc([C@H](Cc2c(Cl)c[n+]([O-])cc2Cl)OC(=O)c2ccc(CNCC(C)(C(=O)OC3CCN(C)CC3)c3ccccc3)s2)cc1OC` (stereo partly drawn) [Example 24, [(1S)-2-(3,5-dichloro-1-oxido-pyridin-1-ium-4-yl)-1-(3,4-dimethoxyphenyl)ethyl] 5-[[[2-methyl-3-[(1-methyl-4-piperidyl)oxy]-3-oxo-2-phenyl-propyl]amino]methyl]thiophene-2-carboxylate], on Human M3 receptor (setting [1]), the negative-log IC50 (pIC50) is 7.00 to 8.00.
Regarding `COc1ccc([C@H](Cc2c(Cl)c[n+]([O-])cc2Cl)OC(=O)c2ccc(CN(C)CC(C)(C(=O)O[C@H]3CN4CCC3CC4)c3ccccc3)s2)cc1OC` (stereo partly drawn) [Example 27, [(1S)-2-(3,5-dichloro-1-oxido-pyridin-1-ium-4-yl)-1-(3,4-dimethoxyphenyl)ethyl] 5-[[methyl-[2-methyl-3-oxo-2-phenyl-3-[(3R)-quinuclidin-3-yl]oxy-propyl]amino]methyl]thiophene-2-carboxylate], the negative logarithm of the IC50 (pIC50) at Human recombinant PDE4B2 (read-out: PDE4B2 IC50 Activity) is 8.00 to 9.00.
`COc1ccc([C@H](Cc2c(Cl)c[n+]([O-])cc2Cl)OC(=O)c2ccc(CNCC(C)(C(=O)O[C@H]3CN4CCC3CC4)c3ccccc3)s2)cc1OC` (stereo partly drawn) [Example 30, [(1S)-2-(3,5-dichloro-1-oxido-pyridin-1-ium-4-yl)-1-(3,4-dimethoxyphenyl)ethyl] 5-[[[2-methyl-3-oxo-2-phenyl-3-[(3R)-quinuclidin-3-yl]oxy-propyl]amino]methyl]thiophene-2-carboxylate] had a negative-log IC50 (pIC50) on Human M3 receptor (M3 IC50 Activity) of 8.00 to 9.00.
Take `COc1ccc([C@H](Cc2c(Cl)c[n+]([O-])cc2Cl)OC(=O)c2ccc(CNC3CC(C(=O)O[C@H]4CN5CCC4CC5)(c4ccccc4)C3)s2)cc1OC` (stereo partly drawn) [Example 36, [(1S)-2-(3,5-dichloro-1-oxido-pyridin-1-ium-4-yl)-1-(3,4-dimethoxyphenyl)ethyl] 5-[[[3-phenyl-3-[(3R)-quinuclidin-3-yl]oxycarbonyl-cyclobutyl]amino]methyl]thiophene-2-carboxylate]: on Human recombinant PDE4B2 (read-out: PDE4B2 IC50 Activity), the pIC50 was 8.00 to 9.00.
